For the experiment, the system named is HPAE cells. Put plainly: Transendothelial electrical resistance (TER) measurement after thrombin. It is filed as cell-based, Human. The note with it: pretreated with 1 uM Go6976 for 30 min, 50 nM thrombin. The text has this: FIG. 7. Effects of C1-S96A mutant on MLC phosphorylation, actin stress fiber formation, and loss of endothelial barrier function in response to thrombin. A-B, MLC phosphorylation in response to thrombin in cells transfected with C1 or C1-S96A-GDI-1 mutant. Cells were stimulated with thrombin for indicated time and lysates were Western blotted with anti-phospho-MLC (top) or anti-GFP Abs to determine MLC phosphorylation. […] C, Actin stress fiber formation in response to thrombin in cells transducing GFP-tagged C1 or GFP-tagged C1-S96A mutant. Cells were stimulated with thrombin for 5 min and fixed followed by staining with Alexa-labeled phallodin to determine actin stress fiber formation by confocal imaging. […] TER values are calculated as change in resistance over the value at time zero (n=7). […] After 30 hrs cells were pretreated with 1 uM Go6976 to inhibit PKCα for 30 min and changes in transendothelial electrical resistance (TER) after addition of 50 nM thrombin were determined. TER values are calculated as change in resistance over the value at time zero (n=8). […]
Transendothelial resistance measurement: The time course of endothelial cell retraction in real time, a measure of increased endothelial permeability, was measured according to the procedure described previously (16, 23).

Take `Cn1c2ccccc2c2c3c(c4c5ccccc5n(CCC#N)c4c21)CNC3=O` [G66976]: the “thrombin-induced decrease in TER” value is “significantly reduced” (HPAE cells transducing C1-GDI-1 mutant) and “not seen” (HPAE cells transducing S91A (S96A) GDI-1 mutant).

The record behind these values is patent US20080160552A1, “Methods and Compounds for Treating Inflammation” (priority 2006, published 2008).
